Measurements reported in patent publication US5254801A, “Heterologous dominant conditional lethal gene which is a phosphonate monoester hydrolase and use thereof in plants” (Monsanto Company, priority 1990, dated 1993).

How the values were obtained:
[1] = test system: PG2982; assay: In vivo (3-14C-) glyceryl glyphosate hydrolysis assay in whole cells; assay type: cell-based, Pseudomonas caryophilli; conditions: strain PG2982; three hour incubation, 30° C.
Protocol: (§1) Bacteria which grew in this medium using glyceryl glyphosate as a sole phosphate source had the ability to cleave both the ester and the phosphonate bond to release the free phosphate. For these bacteria to be useful in the present invention, the first step in the mineralization of glyceryl glyphosate needed is the hydrolysis of the phosphonate ester. Each of the three bacteria which utilized glyceryl glyphosate as a phosphate source were then assayed for a phosphonate monoester hydrolase activity using an in vivo (3-^14 C-) glyceryl glyphosate assay. A 150 ml culture of each bacteria was grown in DF minimal medium with 0.2 mM HK2 PO4 as a phosphate source in a 500 ml flask, 30° C., with shaking. The bacteria were pelleted by centrifugation at 5,000×g for 10 min and resuspended at 10 mg fresh weight/ml. An assay mix included 50 μl cells plus 10 μl (3-^14 C-) glyceryl glyphosate (10,000 cpm/μl) and kept at 30° C. with shaking. After a three hour incubation period, the cells were pelleted in a microfuge and the supernatant injected onto an HPLC anion exchange column and glyphosate analyzed as described above. The pellet was washed twice with 1 ml 10 mM HEPES, pH 7.0, and resuspended in 25 μl buffer. The cells were lysed with 25 μl quench and the debris pelleted in a microfuge. The pellet extract was then analyzed for glyphosate product as described above. […]

[2] = test system: E. coli MM294, JM101, JM101/MPU+, SR200/MPU crude extract; assay: In vitro radioactive hydrolysis assay in crude extracts; assay type: biochemical; conditions: E. coli strains
Text: (§2) The enzymatic reaction can be assayed using labelled (3-^14 C-) glyceryl glyphosate as a substrate and following the conversion to (3-^14 C-)glyphosate as a product using a high pressure liquid chromatography system with a radioactive detector. This assay is the most specific for the phosphonate monoester hydrolase enzymes useful for conditional cell lethality. An enzyme assay consists of 40,000 cpm of labelled (3-^14 C-) glyceryl glyphosate (obtained from NEN Biochemicals), the PEH sample in buffer and buffer to 100 μl final volume. The assay buffer is 10 mM Bis-Tris propane, pH 9.0, plus 100 mM KCl. The reaction is run for 1 hour at 30° C. and then stopped by the addition of 100 μl "quench" which is 100 mM sodium acetate, pH 5.5, in ethanol. The denatured protein is then spun down at 10,000 rpm in a microfuge and the supernatant transferred to an HPLC injection vial. A 100 μl aliquot is then injected onto an Synchropac AX100 anion exchange column 4.6×250 mm) pre-equilibrated in 65 mM potassium phosphate buffer, pH 5.5. The radioactive compounds are eluted isocratically for 15 min at 1 ml/min. The radioactivity of the peaks is measured and integrated by a post-column detector. Typically, the substrate elutes at 4.9 min and the product, glyphosate, at 9.7 min providing baseline separation. […] Alternatively, blank reactions can be included to determine the preexisting glyphosate contamination.
as §1

[3] = test system: LBAA crude extract; assay: as above; assay type: biochemical; conditions: strain LBAA
Text: as §2, §1

[4] = test system: T10 crude extract; assay: as above; assay type: biochemical; conditions: strain T10
Text: as §2, §1

[5] = test system: T12 crude extract; assay: as above; assay type: biochemical; conditions: strain T12
Text: as §2, §1

[6] = test system: E. coli JM101/pMON9428 (pehA:1); assay: Conditional lethal phenotype test on MOPS minimal plates; assay type: cell-based
Text: (§3) The NcoI-BamHI pehA:1 fragment was removed from pMON9420 by restricting the DNA with both enzymes, separating the fragments on an agarose gel, and purifying the pehA fragment from the gel using the GeneClean kit. In a similar manner the BamHI-ClaI pehA:1 fragment was obtained from pMON9421 and both were ligated into an E. coli expression vector to reconstruct the pehA:1 gene behind the RecA promoter with the […] gene 10L leader. The resulting vector, pMON9428 (FIG. 3), was transformed into E. coli strain JM101 using calcium chloride transformation and transformants selected on LB agar with 100 μg/ml spectinomycin. A single colony was isolated and confirmed by restriction mapping to contain pMON9428. The JM101/pMON9428 was then streaked out on LB agar plates containing 100 μg/ml spectinomycin and […] XPP. As a control, JM101 containing the RecA expression vector without the pehA:1 gene was streaked out on the same plate. The JM101/pMON9428 formed blue colonies while the JM101 with the control vector formed white colonies. […] The JM101/pMON9428 and vector control strain were then plated on MOPS minimal medium containing 0.05 mM HK2 PO4 as the phosphate source and 100 μg/ml spectinomycin. […] To test for a conditional lethal phenotype, both strains were streaked side by side on a MOPS minimal plate with 0.05 mM KPO4, 100 μg/ml spectinomycin and 10 mM glyceryl glyphosate. […] To confirm the lethal phenotype was the result of the degradation of the glyceryl glyphosate and subsequent inhibition of aromatic amino acid biosynthesis by glyphosate, both E. coli strains were plated on MOPS minimal medium with 0.05 mM KPO4, 100 μg/ml spectinomycin, 10 mM glyceryl glyphosate and supplemented with aromatic compounds consisting of L-tyrosine, L-tryptophan, L-phenylalanine, each at 100 μg/ml, 2,3 -dihydroxybenzoicacid and para-aminobenzoic acid, each at 5 μg/ml. […] This confirmed that the conditional lethal phenotype observed in the presence of the glyceryl glyphosate was the result of its conversion to and subsequent inhibition of EPSPS by glyphosate.

[7] = test system: E. coli JM101/vector control; assay: as above; assay type: cell-based
Text: as §3

O=C(O)CNCP(=O)(O)OCC(O)CO (stereo not drawn) [glyceryl glyphosate, glycine, N-([hydroxy (2,3 dihydroxy propoxy)phosphonyl]methyl)]
In vivo Hydrolysis of Glyceryl Glyphosate into Glyphosate [1]: Yes
Hydrolysis of Glyceryl Glyphosate into Glyphosate in Crude Extracts [2]: No
Hydrolysis of Glyceryl Glyphosate into Glyphosate in Crude Extracts [3]: Yes
Hydrolysis of Glyceryl Glyphosate into Glyphosate in Crude Extracts [4]: No
Hydrolysis of Glyceryl Glyphosate into Glyphosate in Crude Extracts [5]: Yes
Colony formation with aromatic compound supplement ([6]; 10 mM glyceryl glyphosate plus L-tyrosine, L-tryptophan, L-phenylalanine, 2,3-dihydroxybenzoic acid, para-aminobenzoic acid): formed colonies
Colony formation (lethal phenotype) ([6]; 10 mM glyceryl glyphosate, MOPS minimal plate): did not form visible colonies
Colony formation with aromatic compound supplement ([7]; 10 mM glyceryl glyphosate plus L-tyrosine, L-tryptophan, L-phenylalanine, 2,3-dihydroxybenzoic acid, para-aminobenzoic acid, vector control strain): formed colonies
Toxicity (colony formation) ([7]; 10 mM glyceryl glyphosate, MOPS minimal plate, JM101/vector control): non-toxic
